According to PubChem BioAssay (NCI):
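Following 48 hours of exposure in 96-well plates, responses at five concentrations were used to interpolate endpoints linearly. TGI denotes the concentration required for complete inhibition of growth.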

Columns and labels:
Assay in all cases: inhibition of tumour cell growth, NCI panel, 48 h
786-0 renal = tested on: 786-0 renal
A498 renal = tested on: A498 renal
A549 NSCLC = tested on: A549 NSCLC
ACHN renal = tested on: ACHN renal
BT-549 breast = tested on: BT-549 breast
CAKI-1 renal = tested on: CAKI-1 renal
COLO 205 colon = tested on: COLO 205 colon
DU-145 prostate = tested on: DU-145 prostate
EKVX NSCLC = tested on: EKVX NSCLC
HCT-116 colon = tested on: HCT-116 colon
HCT-15 colon = tested on: HCT-15 colon
HL-60(TB) leukemia = tested on: HL-60(TB) leukemia
HOP-62 NSCLC = tested on: HOP-62 NSCLC
HOP-92 NSCLC = tested on: HOP-92 NSCLC
HS 578T breast = tested on: HS 578T breast
HT29 colon = tested on: HT29 colon
IGROV1 ovarian = tested on: IGROV1 ovarian
K-562 leukemia = tested on: K-562 leukemia
KM12 colon = tested on: KM12 colon
LOX IMVI melanoma = tested on: LOX IMVI melanoma
M14 melanoma = tested on: M14 melanoma
MALME-3M melanoma = tested on: MALME-3M melanoma
MCF7 breast = tested on: MCF7 breast
MDA-MB-231 breast = tested on: MDA-MB-231 breast
MDA-MB-435 = tested on: MDA-MB-435
MDA-N = tested on: MDA-N
MOLT-4 leukemia = tested on: MOLT-4 leukemia
NCI-H226 lung = tested on: NCI-H226 lung
NCI-H23 lung = tested on: NCI-H23 lung
NCI-H460 lung = tested on: NCI-H460 lung
NCI-H522 lung = tested on: NCI-H522 lung
NCI/ADR-RES ovarian = tested on: NCI/ADR-RES ovarian
OVCAR-3 ovarian = tested on: OVCAR-3 ovarian
OVCAR-4 ovarian = tested on: OVCAR-4 ovarian
OVCAR-5 ovarian = tested on: OVCAR-5 ovarian
OVCAR-8 ovarian = tested on: OVCAR-8 ovarian
PC-3 prostate = tested on: PC-3 prostate
RPMI-8226 leukemia = tested on: RPMI-8226 leukemia
RXF 393 renal = tested on: RXF 393 renal
SF-268 CNS = tested on: SF-268 CNS
SF-295 CNS = tested on: SF-295 CNS
SF-539 CNS = tested on: SF-539 CNS
SK-MEL-2 melanoma = tested on: SK-MEL-2 melanoma
SK-MEL-28 melanoma = tested on: SK-MEL-28 melanoma
SK-MEL-5 melanoma = tested on: SK-MEL-5 melanoma
SK-OV-3 ovarian = tested on: SK-OV-3 ovarian
SN12C renal = tested on: SN12C renal
SNB-19 CNS = tested on: SNB-19 CNS
SNB-75 CNS = tested on: SNB-75 CNS
SR leukemia = tested on: SR leukemia
SW-620 colon = tested on: SW-620 colon
T-47D breast = tested on: T-47D breast
TK-10 renal = tested on: TK-10 renal
U251 CNS = tested on: U251 CNS
UACC-257 melanoma = tested on: UACC-257 melanoma
UACC-62 melanoma = tested on: UACC-62 melanoma
UO-31 renal = tested on: UO-31 renal
CCRF-CEM leukemia = tested on: CCRF-CEM leukemia

Measured: TGI

C=C(C)c1ccccc1 (tested in a mixture with another compound)
not listed: CCRF-CEM leukemia
> 100 µM: all other assays above

CC(=O)Nc1nc2ncc(C=O)nc2c(=O)[nH]1
not listed: CCRF-CEM leukemia
> 100 µM: all other assays above

O=C(O)/C=C/C=C/c1ccc2c(c1)OCO2
not listed: CCRF-CEM leukemia
> 100 µM: all other assays above

COC1CC(C)(NC(C)=O)C2OC(c3ccccc3)OCC2O1 (stereo not drawn)
not listed: SK-MEL-2 melanoma
> 100 µM: all other assays above

Cn1c(-c2ccccc2)c2cc3nc4ccccc4nc3cc2c1-c1ccccc1
54.4 µM: RXF 393 renal
35.9 µM: HOP-62 NSCLC
78.7 µM: MALME-3M melanoma
80.8 µM: BT-549 breast
30.2 µM: UACC-62 melanoma
59.5 µM: A498 renal
77.4 µM: MDA-MB-435
47.2 µM: MCF7 breast
72.1 µM: KM12 colon
60.3 µM: SK-MEL-2 melanoma
86.9 µM: SF-268 CNS
24.2 µM: SR leukemia
53.4 µM: HCT-15 colon
89.8 µM: SF-295 CNS
64.6 µM: MOLT-4 leukemia
70.4 µM: PC-3 prostate
45.9 µM: HS 578T breast
92.5 µM: SW-620 colon
38.9 µM: MDA-N
9.71 µM: SK-MEL-5 melanoma
65 µM: LOX IMVI melanoma
40.3 µM: NCI-H522 lung
31.3 µM: M14 melanoma
44.1 µM: NCI-H23 lung
30.1 µM: RPMI-8226 leukemia
9.09 µM: COLO 205 colon
94.2 µM: HOP-92 NSCLC
52.6 µM: HL-60(TB) leukemia
82.6 µM: K-562 leukemia
41.2 µM: SF-539 CNS
25.2 µM: NCI-H460 lung
51.3 µM: SN12C renal
83.3 µM: ACHN renal
64.9 µM: SK-OV-3 ovarian
not listed: 786-0 renal | NCI-H226 lung | CCRF-CEM leukemia
> 100 µM: all other assays above
